Source: ChEMBL document CHEMBL1275495, “Clinical isolates of Aspergillus species remain fully susceptible to voriconazole in the post-voriconazole era” (2008)
Values after ≈ are worked out from the molar mass of the structure shown.

Key:
Format in all cases: functional
[1] = system: Aspergillus fumigatus; experiment: Antifungal activity against Aspergillus fumigatus clinical isolate obtained from invasive aspergillosis patient after 48 hrs by CLSI method
[2] = system: Aspergillus sp.; experiment: Antifungal activity against Aspergillus sp. selected after drug exposure after 48 hrs by CLSI method
[3] = system: Aspergillus sp.; experiment: Antifungal activity against Aspergillus sp. clinical isolate obtained from invasive aspergillosis patient selected after drug exposure after 48 hrs by CLSI method
[4] = system: Aspergillus flavus; experiment: Antifungal activity against Aspergillus flavus clinical isolate obtained from invasive aspergillosis patient after 48 hrs by CLSI method
[5] = system: Aspergillus; experiment: Antifungal activity against Aspergillus species after 48 hrs by CLSI method
[6] = system: Aspergillus sp.; experiment: Antifungal activity against Aspergillus sp. clinical isolate obtained from invasive aspergillosis patient after 48 hrs by CLSI method
[7] = system: Aspergillus niger; experiment: Antifungal activity against Aspergillus niger clinical isolate obtained from invasive aspergillosis patient after 48 hrs by CLSI method
[8] = system: Aspergillus terreus; experiment: Antifungal activity against Aspergillus terreus clinical isolate obtained from invasive aspergillosis patient after 48 hrs by CLSI method

## C[C@@H](c1ncncc1F)[C@](O)(Cn1cncn1)c1ccc(F)cc1F [VORICONAZOLE]
[1]
  Activity: 0.46 µg/mL
[2]
  MIC: 0.4 µg/mL (≈ 1.15 µM)
  MIC50: 0.25 µg/mL (≈ 0.716 µM)
  MIC90: 0.5 µg/mL (≈ 1.43 µM)
[3]
  MIC: 0.61 µg/mL (≈ 1.75 µM)
  MIC50: 0.5 µg/mL (≈ 1.43 µM)
  MIC90: 1 µg/mL (≈ 2.86 µM)
[4]
  Activity: 0.76 µg/mL
[5]
  MIC: 0.39 µg/mL (≈ 1.12 µM)
  MIC50: 0.25 µg/mL (≈ 0.716 µM)
  MIC90: 0.5 µg/mL (≈ 1.43 µM)
[6]
  MIC: 0.57 µg/mL (≈ 1.63 µM)
  MIC50: 0.5 µg/mL (≈ 1.43 µM)
  MIC90: 1 µg/mL (≈ 2.86 µM)
[7]
  Activity: 0.76 µg/mL
[8]
  Activity: 0.76 µg/mL
